# Assay results: ChEMBL document CHEMBL1133877, “2-Amino-4,6-diarylpyridines as novel ligands for the estrogen receptor” (Bioorg Med Chem Lett, 2001); call rule not given here
# Tests used:
# [1] = molecular target: T1, Estrogen receptor beta (Homo sapiens, UniProt Q92731)
# [2] = molecular target: T2, Estrogen receptor (Homo sapiens, UniProt P03372)
# T2 sequence (P03372 whole entry): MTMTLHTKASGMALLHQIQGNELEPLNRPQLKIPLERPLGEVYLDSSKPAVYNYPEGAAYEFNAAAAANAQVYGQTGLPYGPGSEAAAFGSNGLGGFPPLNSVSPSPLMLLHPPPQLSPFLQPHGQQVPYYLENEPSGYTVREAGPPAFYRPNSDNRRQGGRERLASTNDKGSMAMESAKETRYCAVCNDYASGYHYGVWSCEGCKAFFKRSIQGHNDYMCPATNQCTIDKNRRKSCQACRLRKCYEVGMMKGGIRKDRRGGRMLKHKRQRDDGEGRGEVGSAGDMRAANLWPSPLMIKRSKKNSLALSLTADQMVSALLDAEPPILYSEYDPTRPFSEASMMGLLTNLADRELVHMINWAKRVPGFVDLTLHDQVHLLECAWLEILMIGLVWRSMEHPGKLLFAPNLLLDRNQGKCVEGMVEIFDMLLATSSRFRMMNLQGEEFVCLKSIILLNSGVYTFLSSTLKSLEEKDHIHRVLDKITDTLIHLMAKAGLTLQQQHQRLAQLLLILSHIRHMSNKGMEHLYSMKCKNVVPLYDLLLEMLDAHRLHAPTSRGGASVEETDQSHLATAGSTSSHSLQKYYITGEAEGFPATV
# [3] = molecular target: T1, Estrogen receptor beta; test: Displacement of [3H]17-beta-estradiol from Estrogen receptor beta of bacterial lysate by scintillation proximity assay (SPA) at 10e-5 M; Inactive
# [4] = molecular target: T2, Estrogen receptor; test: Displacement of [3H]17-beta-estradiol from Estrogen receptor alpha of bacterial lysate by scintillation proximity assay (SPA) at 10e-5 M; Inactive
# T1 sequence (Q92731 whole entry): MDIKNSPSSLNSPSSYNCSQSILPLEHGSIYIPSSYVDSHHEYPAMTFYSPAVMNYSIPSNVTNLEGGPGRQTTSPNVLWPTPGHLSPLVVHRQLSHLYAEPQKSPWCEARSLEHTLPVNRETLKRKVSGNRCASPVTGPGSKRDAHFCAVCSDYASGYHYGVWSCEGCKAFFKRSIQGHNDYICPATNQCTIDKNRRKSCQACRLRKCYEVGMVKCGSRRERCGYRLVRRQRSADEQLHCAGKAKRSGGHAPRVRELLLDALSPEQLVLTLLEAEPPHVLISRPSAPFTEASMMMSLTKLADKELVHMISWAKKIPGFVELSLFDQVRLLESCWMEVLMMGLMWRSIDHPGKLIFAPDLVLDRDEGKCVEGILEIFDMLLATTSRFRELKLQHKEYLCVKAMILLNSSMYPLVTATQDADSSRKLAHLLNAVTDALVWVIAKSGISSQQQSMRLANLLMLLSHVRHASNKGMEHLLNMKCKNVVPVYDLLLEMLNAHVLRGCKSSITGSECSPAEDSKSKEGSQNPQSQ
SMILES,Ki [1],Ki [2],Ki [3],Ki [4]
CCCN(Cc1ccccn1)c1cc(-c2ccccc2)cc(-c2ccc(O)cc2)n1,710 nM,180 nM,–,–
Cc1ccccc1-c1cc(-c2ccc(O)cc2)nc(N(C)CCc2ccccc2)c1,1100 nM,650 nM,–,–
CCCN(Cc1ccccn1)c1cc(-c2ccccc2)cc(-c2ccc(O)cc2C)n1,–,–,Not Active,Not Active
Cc1cc(-c2cc(-c3ccccc3)cc(N(C)CCN(C)C)n2)ccc1O,–,–,Not Active,Not Active
CCCN(Cc1ccccn1)c1cc(-c2ccccc2)cc(-c2ccc(O)c(C)c2)n1,330 nM,70 nM,–,–
CN(CCc1ccccc1)c1cc(-c2ccccc2)cc(-c2ccc(O)cc2)n1,1050 nM,490 nM,–,–
Cc1cc(-c2cc(-c3ccccc3)cc(N(CCc3ccccc3)Cc3ccccc3)n2)ccc1O,250 nM,130 nM,–,–
Cc1cc(-c2cc(-c3ccccc3)cc(N(C)Cc3cccc4ccccc34)n2)ccc1O,1410 nM,450 nM,–,–
Cc1cc(-c2cc(-c3ccccc3)cc(N(C)CC(C)C)n2)ccc1O,660 nM,210 nM,–,–
CCCCN(C)c1cc(-c2ccccc2)cc(-c2ccc(O)c(C)c2)n1,790 nM,660 nM,–,–
Cc1cc(-c2cc(-c3ccccc3)cc(N(C)CCc3ccccc3)n2)ccc1O,680 nM,160 nM,–,–
Cc1cc(-c2cc(-c3ccccc3)cc(N3CCC(Cc4ccccc4)CC3)n2)ccc1O,110 nM,20 nM,–,–
CN(CCc1ccccc1)c1cc(-c2ccc(O)cc2)cc(-c2ccc(O)cc2)n1,> 3000 nM,> 3000 nM,–,–
Cc1cc(-c2cc(-c3ccccc3)cc(N3CCCC3)n2)ccc1O,–,–,Not Active,Not Active
Cc1cc(-c2cc(-c3ccccc3)cc(N(C)Cc3ccccc3)n2)ccc1O,1120 nM,380 nM,–,–
Cc1cc(-c2cc(-c3ccccc3)cc(N(C)CCc3ccccn3)n2)ccc1O,> 3000 nM,1260 nM,–,–
CC(C)CN(C)c1cc(-c2ccccc2)cc(-c2ccc(O)cc2)n1,1260 nM,620 nM,–,–
CCOCCN(CCOCC)c1cc(-c2ccccc2)cc(-c2ccc(O)c(C)c2)n1,1170 nM,2000 nM,–,–
CCN(Cc1ccncc1)c1cc(-c2ccccc2)cc(-c2ccc(O)c(C)c2)n1,1000 nM,830 nM,–,–
